Measured values reported in patent US20090191636A1, “Method of Producing Transgenic Graminaceous Cells and Plants” (priority 2006, published 2009).

Experiments:
[1] = test system: wheat embryos derived from mature dried grain of the cultivar Bobwhite; experiment: Effect of D-amino acids on regeneration of wheat from embryos of mature dried grain (Bobwhite); assay type: cell-based, Triticum aestivum; settings: for proportion (%) of explants regenerating after 3 weeks, Average / proportion (%) of explants regenerating after 3 weeks, Experiment number 1 / proportion (%) of explants regenerating after 3 weeks, Experiment number 2 / proportion (%) of explants regenerating after 3 weeks, Experiment number 3: n = 20
Method: (§1) A range of concentrations of the D-amino acids D-serine and D-alanine were tested for effects on wheat regeneration and germination from embryos derived from mature dried grain of the cultivar Bobwhite.

[2] = test system: wheat mature dried grain of the cultivar Bobwhite; experiment: Effect of D-amino acids on germination of wheat mature dried grain (Bobwhite); assay type: in vivo, Triticum aestivum; settings: n = 15
Method: as §1

[3] = test system: wheat embryos derived from mature dried grain of the cultivar Ventura; experiment: Effect of D-amino acids on regeneration of wheat from embryos of mature dried grain (Ventura); assay type: cell-based; settings: n = 20
[4] = test system: wheat mature dried grain of the cultivar Ventura; experiment: Effect of D-amino acids on germination of wheat mature dried grain (Ventura); assay type: in vivo; settings: n = 15
Method: [Worded in the source for another variant; this variant is reported under the same test.] as §1

N[C@H](CO)C(=O)O [D-serine]
proportion (%) of explants regenerating after 3 weeks, Average ([1]; 0.5 mM): 28%
proportion (%) of explants regenerating after 3 weeks, Experiment number 1 ([1]; 0.5 mM): 45%
proportion (%) of explants regenerating after 3 weeks, Experiment number 2 ([1]; 0.5 mM): 33%
proportion (%) of explants regenerating after 3 weeks, Experiment number 3 ([1]; 0.5 mM): 5%
proportion (%) of explants regenerating after 3 weeks, Average ([1]; 1 mM): 23%
proportion (%) of explants regenerating after 3 weeks, Experiment number 1 ([1]; 1 mM): 30%
proportion (%) of explants regenerating after 3 weeks, Experiment number 2 ([1]; 1 mM): 33%
proportion (%) of explants regenerating after 3 weeks, Experiment number 3 ([1]; 1 mM): 5%
proportion (%) of explants regenerating after 3 weeks, Average ([1]; 5 mM): 8%
proportion (%) of explants regenerating after 3 weeks, Experiment number 1 ([1]; 5 mM): 10%
proportion (%) of explants regenerating after 3 weeks, Experiment number 2 ([1]; 5 mM): 10%
proportion (%) of explants regenerating after 3 weeks, Experiment number 3 ([1]; 5 mM): 5%
proportion (%) of explants regenerating after 3 weeks, Average ([1]; 7.5 mM): 3%
proportion (%) of explants regenerating after 3 weeks, Experiment number 1 ([1]; 7.5 mM): 0%
proportion (%) of explants regenerating after 3 weeks, Experiment number 2 ([1]; 7.5 mM): 5%
proportion (%) of explants regenerating after 3 weeks, Experiment number 3 ([1]; 7.5 mM): 5%
proportion (%) of explants regenerating after 3 weeks, Average ([1]; 10 mM): 0%
proportion (%) of explants regenerating after 3 weeks, Experiment number 1 ([1]; 10 mM): 0%
proportion (%) of explants regenerating after 3 weeks, Experiment number 2 ([1]; 10 mM): 0%
proportion (%) of explants regenerating after 3 weeks, Experiment number 3 ([1]; 10 mM): 0%
proportion (%) of explants regenerating after 3 weeks, Average ([1]; 30 mM): 0%
proportion (%) of explants regenerating after 3 weeks, Experiment number 1 ([1]; 30 mM): 0%
proportion (%) of explants regenerating after 3 weeks, Experiment number 2 ([1]; 30 mM): 0%
proportion (%) of explants regenerating after 3 weeks, Experiment number 3 ([1]; 30 mM): 0%
levels that reduced the regeneration and germination of wheat plants ([1]; regeneration and germination (Tables 4 and 5)): greater than 7.5 mM
proportion (%) of explants germinated after 1 week, Average ([2]; 0.5 mM): 62%
proportion (%) of explants germinated after 1 week, Experiment Number 1 ([2]; 0.5 mM): 35%
proportion (%) of explants germinated after 1 week, Experiment Number 2 ([2]; 0.5 mM): 70%
proportion (%) of explants germinated after 1 week, Experiment Number 3 ([2]; 0.5 mM): 80%
proportion (%) of explants germinated after 1 week, Average ([2]; 1 mM): 57%
proportion (%) of explants germinated after 1 week, Experiment Number 1 ([2]; 1 mM): 30%
proportion (%) of explants germinated after 1 week, Experiment Number 2 ([2]; 1 mM): 80%
proportion (%) of explants germinated after 1 week, Experiment Number 3 ([2]; 1 mM): 60%
proportion (%) of explants germinated after 1 week, Average ([2]; 5 mM): 38%
proportion (%) of explants germinated after 1 week, Experiment Number 1 ([2]; 5 mM): 20%
proportion (%) of explants germinated after 1 week, Experiment Number 2 ([2]; 5 mM): 70%
proportion (%) of explants germinated after 1 week, Experiment Number 3 ([2]; 5 mM): 25%
proportion (%) of explants germinated after 1 week, Average ([2]; 7.5 mM): 32%
proportion (%) of explants germinated after 1 week, Experiment Number 1 ([2]; 7.5 mM): 10%
proportion (%) of explants germinated after 1 week, Experiment Number 2 ([2]; 7.5 mM): 60%
proportion (%) of explants germinated after 1 week, Experiment Number 3 ([2]; 7.5 mM): 25%
proportion (%) of explants germinated after 1 week, Average ([2]; 10 mM): 18%
proportion (%) of explants germinated after 1 week, Experiment Number 1 ([2]; 10 mM): 0%
proportion (%) of explants germinated after 1 week, Experiment Number 2 ([2]; 10 mM): 35%
proportion (%) of explants germinated after 1 week, Experiment Number 3 ([2]; 10 mM): 20%
proportion (%) of explants germinated after 1 week, Average ([2]; 30 mM): 0%
proportion (%) of explants germinated after 1 week, Experiment Number 1 ([2]; 30 mM): 0%
proportion (%) of explants germinated after 1 week, Experiment Number 2 ([2]; 30 mM): 0%
proportion (%) of explants germinated after 1 week, Experiment Number 3 ([2]; 30 mM): 0%
proportion (%) of explants regenerating after 3 weeks, Average ([3]; 0.5 mM): 10%
proportion (%) of explants regenerating after 3 weeks, Experiment number 1 ([3]; 0.5 mM): 10%
proportion (%) of explants regenerating after 3 weeks, Experiment number 2 ([3]; 0.5 mM): 15%
proportion (%) of explants regenerating after 3 weeks, Experiment number 3 ([3]; 0.5 mM): 5%
proportion (%) of explants regenerating after 3 weeks, Average ([3]; 1 mM): 7%
proportion (%) of explants regenerating after 3 weeks, Experiment number 1 ([3]; 1 mM): 10%
proportion (%) of explants regenerating after 3 weeks, Experiment number 2 ([3]; 1 mM): 5%
proportion (%) of explants regenerating after 3 weeks, Experiment number 3 ([3]; 1 mM): 5%
proportion (%) of explants regenerating after 3 weeks, Average ([3]; 5 mM): 5%
proportion (%) of explants regenerating after 3 weeks, Experiment number 1 ([3]; 5 mM): 5%
proportion (%) of explants regenerating after 3 weeks, Experiment number 2 ([3]; 5 mM): 5%
proportion (%) of explants regenerating after 3 weeks, Average ([3]; 7.5 mM): 0%
proportion (%) of explants regenerating after 3 weeks, Experiment number 1 ([3]; 7.5 mM): 0%
proportion (%) of explants regenerating after 3 weeks, Experiment number 2 ([3]; 7.5 mM): 0%
proportion (%) of explants regenerating after 3 weeks, Experiment number 3 ([3]; 7.5 mM): 0%
proportion (%) of explants regenerating after 3 weeks, Average ([3]; 10 mM): 0%
proportion (%) of explants regenerating after 3 weeks, Experiment number 1 ([3]; 10 mM): 0%
proportion (%) of explants regenerating after 3 weeks, Experiment number 2 ([3]; 10 mM): 0%
proportion (%) of explants regenerating after 3 weeks, Experiment number 3 ([3]; 10 mM): 0%
proportion (%) of explants regenerating after 3 weeks, Average ([3]; 30 mM): 0%
proportion (%) of explants regenerating after 3 weeks, Experiment number 1 ([3]; 30 mM): 0%
proportion (%) of explants regenerating after 3 weeks, Experiment number 2 ([3]; 30 mM): 0%
proportion (%) of explants regenerating after 3 weeks, Experiment number 3 ([3]; 30 mM): 0%
germination: proportion (%) of explants regenerating after 1 week, Average ([4]; 0.5 mM): 70%
germination: proportion (%) of explants regenerating after 1 week, Experiment number 1 ([4]; 0.5 mM): 65%
germination: proportion (%) of explants regenerating after 1 week, Experiment number 2 ([4]; 0.5 mM): 60%
germination: proportion (%) of explants regenerating after 1 week, Experiment number 3 ([4]; 0.5 mM): 85%
germination: proportion (%) of explants regenerating after 1 week, Average ([4]; 1 mM): 68%
germination: proportion (%) of explants regenerating after 1 week, Experiment number 1 ([4]; 1 mM): 70%
germination: proportion (%) of explants regenerating after 1 week, Experiment number 2 ([4]; 1 mM): 70%
germination: proportion (%) of explants regenerating after 1 week, Experiment number 3 ([4]; 1 mM): 65%
germination: proportion (%) of explants regenerating after 1 week, Average ([4]; 5 mM): 53%
germination: proportion (%) of explants regenerating after 1 week, Experiment number 1 ([4]; 5 mM): 60%
germination: proportion (%) of explants regenerating after 1 week, Experiment number 2 ([4]; 5 mM): 45%
germination: proportion (%) of explants regenerating after 1 week, Average ([4]; 7.5 mM): 23%
germination: proportion (%) of explants regenerating after 1 week, Experiment number 1 ([4]; 7.5 mM): 15%
germination: proportion (%) of explants regenerating after 1 week, Experiment number 2 ([4]; 7.5 mM): 20%
germination: proportion (%) of explants regenerating after 1 week, Experiment number 3 ([4]; 7.5 mM): 35%
germination: proportion (%) of explants regenerating after 1 week, Average ([4]; 10 mM): 43%
germination: proportion (%) of explants regenerating after 1 week, Experiment number 2 ([4]; 10 mM): 30%
germination: proportion (%) of explants regenerating after 1 week, Experiment number 3 ([4]; 10 mM): 55%
germination: proportion (%) of explants regenerating after 1 week, Average ([4]; 30 mM): 0%
germination: proportion (%) of explants regenerating after 1 week, Experiment number 1 ([4]; 30 mM): 0%
germination: proportion (%) of explants regenerating after 1 week, Experiment number 2 ([4]; 30 mM): 0%
germination: proportion (%) of explants regenerating after 1 week, Experiment number 3 ([4]; 30 mM): 0%
